Consider four compounds from US20130115182A1, “TOPICAL USE OF STEVIOL OR DERIVATIVES IN HAIR CARE” (DSM NUTRITIONAL PRODUCTS LTD., priority 2010, published 2013).

Data set [1] concerns Normal human melanocytes NHM (HEMn-MP, Clonetics). Nature of the data set: Quantification of melanin synthesis in cell culture. In kind it is cell-based. As to conditions: for Melanin content, percentage of the control: three days, absorbance 405 nm. The method, then: Normal human melanocytes NHM (HEMn-MP, Clonetics) were seeded in 96 well cell culture plates and grown to sub-confluence for two days in a mixture of M2-Medium (Clonetics) and Medium (Promocell). Culture medium was exchanged with Culture Medium containing Steviol and melanogenesis progressed for another three days at 37° C. with another medium exchange on day two. Including cell layer and culture supernatant the total melanin was extracted using 1.7M KOH with vigorous shaking at RT. We measured melanin content at 405 nm in an absorbance plate reader. The data is normalized to 100% for the un-treated control sample, and expressed as percentage of the control.

The test system of data set [2] is normal human scalp skin hair follicles. Kind of data set: Hair follicle melanogenesis (in vitro graying of cultured anagen VI scalp hair follicles). In kind it is cell-based. The arrangement: key: remaining pigmentation is scored minimal (+); steviol 1.25 μM (++); Remaining pigmentation is scored (+++). As to conditions: seven day culture. The source says:
For optimal quality of hair follicles with an intact pigmentary-unit, normal human scalp skin hair follicles in the anagen VI stage of the hair cycle were isolated from scalp skin biopsies obtained from elective plastic surgery after obtaining informed consent from patients following the protocol published by Philpott and colleagues with slight modifications (Philpott et al. 1990, Philpott 1999). Briefly, after separation of epidermis and dermis from subcutaneous fat the dermis just above the dermis/subcutis border under a binocular dissecting microscope, the proximal two thirds of anagen hair follicles located in the subcutaneous fat were isolated using watchmakers forceps and subsequently collected in Petri dishes containing complete hair follicle culture medium (Williams E, Biochrom KG seromed, Berlin, Germany); 1% Penicillin-Streptomycin; 1% L-Glutamine 200 mM; 0.02% hydrocortisone; 0.1% Insulin. Three hair follicles per well were then randomly distributed and cultured in 24 well plates (Costar, N.Y., USA) containing […] of complete hair follicle culture medium per well. Per experiment, a minimum of three wells (containing three hair follicles each) was assigned to each test group, and was supplemented with different concentrations of test substances pre-diluted in the respective dissolvent 100× concentrated. An equal number of control follicles were cultured in complete hair follicle culture medium alone. Each experiment was repeated with hair follicles from at least three different age, pigmentation and sex matched donors. Every second day, each well was photo-documented, the pigmentation degree of each hair follicle determined, medium replaced and fresh supplements added. After 7 days hair follicles were snap frozen and stored at −80° C. Steviol was tested at two different concentrations (0.625 and 1.25 μM). […] Sphingosyl phosphorylcholine at 1 μM was used as a positive control as it is known from previous work to reduce the speed of in vitro hair graying. Remaining pigmentation is scored (+++). […]

For data set [3], the system named is Human hair follicles. Nature of the data set: Growth of human hair follicle (length measurements in culture). In kind it is cell-based. The following applies: for Growth (% of control): hair follicle length. The protocol:
(§1) Human hair follicles were obtained from human skin fragments (obtained by plastic surgery) and grown in supplemented William's E medium supplemented with penicillin/streptomycin, L-glutamine (2 mM), insulin (10 μg/ml and hydrocortisone (8 nM). Hair follicle growth was assessed via length measurements (day 0, 4, 7). Triiodothyronine (T3, 30 μM) was used as positive control. The effect of steviol (at 0.625 to 5 μg/ml) was tested in parallel. At day 7, RNA was extracted from hair follicles that had been subjected to different treatments (control, T3, steviol). RNA was processed for Affymetrix® DNA microarray analysis in order to identify effects of compounds on gene expression. Where appropriate, RNA expression levels were further quantified by RT-PCR using the ABI 7900 Taqman instrumentation.

The test system of data set [4] is Human hair follicles. Kind of data set: Affymetrix DNA microarray gene expression in hair follicles. In kind it is cell-based. The following applies: day 7 RNA. The method, then:
as §1, with “instrumentation. Global effects of steviol on gene expression were determined by transcriptomics i.e. DNA microarray analysis. The obtained data were processed with Genedata software tools.” for “instrumentation.”

For data set [5], the system named is Human hair follicles. Nature of the data set: RT-PCR mRNA level of marker genes in hair follicles. In kind it is cell-based. The method, then:
as §1, with “The effect of steviol (at 0.625 to 5 μg/ml) was tested in parallel.” left out, “instrumentation. The mRNA level of some marker genes involved in growth and/or differentiation of cells in the skin and in hair follicle was further determined by RT-PCR and is shown in Table 3.” for “instrumentation.”

A short description of data set [6]: Stabilization of steviol in acidic aqueous solution (discoloration, Pantone color index). In kind it is physicochemical. The following applies: for Pantone index (color index of solution): 1% solution in water. The method, then:
Steviol was dissolved at 1 wt.-% in water and the pH adjusted at different values as shown below. […] However, the more acidic the pH, the less discoloration was observed as reported by the patone color index. Color index of 1% Steviol solution in water at different pH: […]

Turning to `CC1(C)[C@@H](O[C@H]2O[C@H](C(=O)O)[C@@H](O)[C@H](O)[C@H]2O[C@@H]2O[C@H](C(=O)O)[C@@H](O)[C@H](O)[C@H]2O)CC[C@]2(C)[C@H]3C(=O)C=C4[C@@H]5C[C@@](C)(C(=O)O)CC[C@]5(C)CC[C@@]4(C)[C@]3(C)CC[C@@H]12` [Glycyrrhizin, reference compound], the “Melanin content, percentage of the control” value (“Melanin content, percentage” for short) in data set [1] (1.5 mM) amounted to 132%.

Regarding `CCCCCCCCCCCCC/C=C/[C@@H](O)[C@@H](N)COP(=O)([O-])OCC[N+](C)(C)C` [Sphingosylphosphorylcholine, reference compound], the “Pigmentation (remaining hair follicle pigmentation score)” value in data set [2] (1 microM) is “+++”.

Consider `C=C1C[C@@]23CC[C@H]4[C@@](C)(CCC[C@@]4(C)C(=O)O)[C@@H]2CC[C@]1(O)C3` [Steviol, steviol], for which the “Growth (% of control)” value in the data set on Human hair follicles [3] (0.625 μg/mL) was 122 % of control. Also, the “Growth (% of control)” value in the data set on Human hair follicles [3] (1.25 μg/mL) is 121 % of control. Also, in the data set with Human hair follicles [3] (2.5 μg/mL), the “Growth (% of control)” value is listed as 113 % of control. In addition, the “Growth (% of control)” value in the data set on Human hair follicles [3] (5 μg/mL) is on record as 117 % of control. In addition, the “Elongation of hair follicles (in words)” value in the data set on Human hair follicles [3] (0.625 to 5 μg/ml) was “dose-dependently favoured the elongation of hair follicles”. In addition, in the data set on Human hair follicles [4], the “Ratio of steviol-treated/untreated, gene CASP8 and FADD-like apoptosis regulator” value was 2.58; the “Ratio of steviol-treated/untreated, gene Chemokine (C-X-C motif) ligand 12 (stromal cell-derived factor 1)” value was determined as 2.22; the “Ratio of steviol-treated/untreated, gene Collagen, type IV, alpha 6” value is recorded as 2.04; the “Ratio of steviol-treated/untreated, gene Fibroblast growth factor 7 (keratinocyte growth factor)” value is 2.91. In the data set on Human hair follicles [4], the “Ratio of steviol-treated/untreated, gene Insulin-like growth factor 1 receptor” value turned out to be 2.00; the “Ratio of steviol-treated/untreated, gene Integrin, alpha 6” value is listed as 2.15; the “Ratio of steviol-treated/untreated, gene TIMP metallopeptidase inhibitor 3” value came to 2.32; the “Ratio of steviol-treated/untreated, gene Topoisomerase (DNA) II alpha 170 kDa” value is recorded as 2.45. Moreover, the “Ratio of steviol-treated/untreated, gene Transmembrane protein with EGF-like and two follistatin-like domains 2” value in the data set on Human hair follicles [4] came to 3.10. Also, the “Fold changes (versus control), Integrin alpha-6 mRNA” value in the data set on Human hair follicles [5] (0.625 μg/mL) is on record as 1.62 ± 0.06. In addition, in the data set on Human hair follicles [5] (1.25 μg/mL), the “Fold changes (versus control), COX-2 mRNA” value turned out to be 0.46 ± 0.17; the “Fold changes (versus control), HO-1 mRNA” value is 0.64 ± 0.08; the “Fold changes (versus control), Involucrin mRNA” value is 0.51 ± 0.22. In the data set with Human hair follicles [5] (10 μg/mL), the “Fold changes (versus control), Keratin 6 mRNA” value amounted to 1.33 ± 0.11. In data set [1] (0.25 microM), the “Melanin content, percentage” value is 109%. Besides, the “Production of melanin in human melanocytes (in words)” value in data set [1] (0.25 to 1 micro M) is “clear dose dependent positive effect on the production of melanin”. For the same compound, in data set [1] (0.5 micro M), the “Melanin content, percentage” value was determined as 124%. Moreover, the “Melanin content, percentage” value in data set [1] (1 micro M) is listed as 130%. For the same compound, the “Pantone index (color index of solution)” value in data set [6] (pH 6) came to 155. The “Pantone index (color index of solution)” value in data set [6] (pH 6.5) was 155. The “Pantone index (color index of solution)” value in data set [6] (pH 7) came to 158. Further, the “Pantone index (color index of solution)” value in data set [6] (pH 9) was 160. Besides, in data set [6] (1 wt.-% in water, pH 9), the “Time until solution turns brown (instability)” value is not above 1 days. The “Pigmentation (remaining hair follicle pigmentation score)” value in data set [2] (0.625 microM) is “+++”. Moreover, the “Pigmentation (remaining hair follicle pigmentation score)” value in data set [2] (1.25 microM) is on record as “++”.

For `N[C@@H](Cc1cc(I)c(Oc2ccc(O)c(I)c2)c(I)c1)C(=O)O` [Triiodothyronine, reference compound], the “Growth (% of control)” value in the data set with Human hair follicles [3] (30 μM, day 0, 4, 7) was 133 % of control.
